# Measurements published in ChEMBL document CHEMBL4699582, “Discovery of OATD-01, a First-in-Class Chitinase Inhibitor as Potential New Therapeutics for Idiopathic Pulmonary Fibrosis” (J Med Chem, 2020).
# How the values were obtained:
# [1] = biological target: Acidic mammalian chitinase (Homo sapiens, UniProt Q9BZP6); assay: Inhibition of full-length C-terminal his-tagged human AMCase expressed in CHO-K1 cells assessed as reduction in chitinolytic activity using 4-methylumbelliferyl-beta-D-N,N-diacetylchitobioside hydrate as substrate after 60 mins by fluorometric assay; type: cell-based
# [2] = biological target: Voltage-gated inwardly rectifying potassium channel KCNH2 (Homo sapiens, UniProt Q12809); assay: Inhibition of tracer red binding to human ERG expressed in HEK293 cell membranes measured after 2 to 6 hrs by fluorescence polarization assay
# [3] = biological target: Acidic mammalian chitinase (Mus musculus, UniProt Q91XA9); assay: Inhibition of full-length C-terminal his-tagged mouse AMCase expressed in expressed in CHO-K1 cells assessed as reduction in chitinolytic activity using 4-methylumbelliferyl-beta-D-N,N'-diacetylchitobioside hydrate as substrate after 60 mins by fluorometric assay; type: cell-based
# Chitotriosidase-1 [4] = biological target: Chitotriosidase-1 (Mus musculus, UniProt Q9D7Q1); assay: biochemical
# Description: Inhibition of recombinant full-length C-terminal his-tagged mouse CHIT1 expressed in CHO-K1 cells assessed as reduction in chitinolytic activity using 4-methylumbelliferyl-beta-D-N,N',N"-triacetylchitotrioside as substrate after 60 mins by fluorometric assay
# Chitotriosidase-1 [5] = biological target: Chitotriosidase-1 (Homo sapiens, UniProt Q13231); type: cell-based; conditions: hek293f
# Sequence of Chitotriosidase-1 (Homo sapiens, UniProt Q13231) (Q13231 whole entry): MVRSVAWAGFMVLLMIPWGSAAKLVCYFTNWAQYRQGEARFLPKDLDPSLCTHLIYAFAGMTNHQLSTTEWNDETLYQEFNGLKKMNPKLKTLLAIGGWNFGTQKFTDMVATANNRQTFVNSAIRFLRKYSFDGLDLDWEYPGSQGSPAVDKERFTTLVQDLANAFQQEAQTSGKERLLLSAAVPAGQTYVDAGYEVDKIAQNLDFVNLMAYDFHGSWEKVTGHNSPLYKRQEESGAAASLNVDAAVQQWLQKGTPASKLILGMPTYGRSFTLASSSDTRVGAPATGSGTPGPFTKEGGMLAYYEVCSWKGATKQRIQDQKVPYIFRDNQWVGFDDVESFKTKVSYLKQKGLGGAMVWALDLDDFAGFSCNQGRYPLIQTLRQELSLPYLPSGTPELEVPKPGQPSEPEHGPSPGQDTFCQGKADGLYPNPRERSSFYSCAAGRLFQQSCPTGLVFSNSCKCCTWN
# Sequence of Chitotriosidase-1 (Mus musculus, UniProt Q9D7Q1) (Q9D7Q1 whole entry): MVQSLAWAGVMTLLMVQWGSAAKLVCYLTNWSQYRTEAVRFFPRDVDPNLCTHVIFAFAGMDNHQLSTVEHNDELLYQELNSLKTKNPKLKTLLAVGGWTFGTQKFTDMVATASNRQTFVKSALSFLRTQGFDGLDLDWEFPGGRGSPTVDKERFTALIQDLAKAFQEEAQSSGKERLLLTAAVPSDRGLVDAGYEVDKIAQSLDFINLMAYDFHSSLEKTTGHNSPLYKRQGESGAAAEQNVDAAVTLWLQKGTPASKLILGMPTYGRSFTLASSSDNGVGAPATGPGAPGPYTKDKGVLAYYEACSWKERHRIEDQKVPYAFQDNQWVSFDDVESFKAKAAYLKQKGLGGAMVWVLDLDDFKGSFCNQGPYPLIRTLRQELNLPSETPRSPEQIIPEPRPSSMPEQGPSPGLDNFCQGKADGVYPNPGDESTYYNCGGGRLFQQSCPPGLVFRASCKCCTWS
# Sequence of Acidic mammalian chitinase (Mus musculus, UniProt Q91XA9) (Q91XA9 whole entry): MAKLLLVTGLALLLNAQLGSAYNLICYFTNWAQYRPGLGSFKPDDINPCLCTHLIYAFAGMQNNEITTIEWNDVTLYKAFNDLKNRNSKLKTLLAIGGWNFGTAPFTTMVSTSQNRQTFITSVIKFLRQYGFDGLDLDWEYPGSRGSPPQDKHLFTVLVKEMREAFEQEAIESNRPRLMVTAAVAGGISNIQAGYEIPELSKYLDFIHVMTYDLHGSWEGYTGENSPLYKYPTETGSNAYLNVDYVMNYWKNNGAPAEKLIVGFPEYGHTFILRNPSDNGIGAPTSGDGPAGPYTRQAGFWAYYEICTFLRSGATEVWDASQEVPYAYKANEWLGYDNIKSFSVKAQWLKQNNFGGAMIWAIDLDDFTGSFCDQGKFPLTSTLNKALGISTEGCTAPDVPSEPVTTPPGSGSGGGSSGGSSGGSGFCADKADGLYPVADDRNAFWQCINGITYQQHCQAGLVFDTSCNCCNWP
# Sequence of Voltage-gated inwardly rectifying potassium channel KCNH2 (Q12809 whole entry): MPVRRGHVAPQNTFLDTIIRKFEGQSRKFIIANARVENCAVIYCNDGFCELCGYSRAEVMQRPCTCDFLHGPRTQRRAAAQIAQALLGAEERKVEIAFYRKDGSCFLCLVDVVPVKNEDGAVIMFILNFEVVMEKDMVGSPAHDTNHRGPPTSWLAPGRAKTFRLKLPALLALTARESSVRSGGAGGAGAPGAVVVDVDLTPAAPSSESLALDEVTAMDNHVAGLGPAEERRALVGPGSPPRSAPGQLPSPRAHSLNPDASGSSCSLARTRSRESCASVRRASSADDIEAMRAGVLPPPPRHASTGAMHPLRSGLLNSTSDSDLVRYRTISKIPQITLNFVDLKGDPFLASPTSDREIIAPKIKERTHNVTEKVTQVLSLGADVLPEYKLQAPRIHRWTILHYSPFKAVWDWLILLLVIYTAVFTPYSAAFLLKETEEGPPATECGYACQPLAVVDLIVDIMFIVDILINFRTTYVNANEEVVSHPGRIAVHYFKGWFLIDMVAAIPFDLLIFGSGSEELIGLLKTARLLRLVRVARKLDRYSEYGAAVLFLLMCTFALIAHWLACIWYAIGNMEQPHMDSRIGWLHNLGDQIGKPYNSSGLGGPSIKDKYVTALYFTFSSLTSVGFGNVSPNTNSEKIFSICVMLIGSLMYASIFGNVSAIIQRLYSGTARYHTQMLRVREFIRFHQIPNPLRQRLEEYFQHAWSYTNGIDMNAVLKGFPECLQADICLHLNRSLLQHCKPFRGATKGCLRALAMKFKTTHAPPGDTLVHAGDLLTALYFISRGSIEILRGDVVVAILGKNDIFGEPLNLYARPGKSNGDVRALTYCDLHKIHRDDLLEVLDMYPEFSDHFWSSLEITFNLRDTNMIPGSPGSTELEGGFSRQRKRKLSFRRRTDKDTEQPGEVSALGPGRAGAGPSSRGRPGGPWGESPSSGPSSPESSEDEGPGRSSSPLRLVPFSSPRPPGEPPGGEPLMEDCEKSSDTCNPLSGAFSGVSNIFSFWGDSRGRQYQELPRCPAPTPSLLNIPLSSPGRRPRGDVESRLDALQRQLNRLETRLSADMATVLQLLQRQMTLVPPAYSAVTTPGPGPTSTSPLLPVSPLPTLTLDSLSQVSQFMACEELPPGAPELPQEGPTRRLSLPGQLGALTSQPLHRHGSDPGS
# Sequence of Acidic mammalian chitinase (Homo sapiens, UniProt Q9BZP6) (Q9BZP6 whole entry): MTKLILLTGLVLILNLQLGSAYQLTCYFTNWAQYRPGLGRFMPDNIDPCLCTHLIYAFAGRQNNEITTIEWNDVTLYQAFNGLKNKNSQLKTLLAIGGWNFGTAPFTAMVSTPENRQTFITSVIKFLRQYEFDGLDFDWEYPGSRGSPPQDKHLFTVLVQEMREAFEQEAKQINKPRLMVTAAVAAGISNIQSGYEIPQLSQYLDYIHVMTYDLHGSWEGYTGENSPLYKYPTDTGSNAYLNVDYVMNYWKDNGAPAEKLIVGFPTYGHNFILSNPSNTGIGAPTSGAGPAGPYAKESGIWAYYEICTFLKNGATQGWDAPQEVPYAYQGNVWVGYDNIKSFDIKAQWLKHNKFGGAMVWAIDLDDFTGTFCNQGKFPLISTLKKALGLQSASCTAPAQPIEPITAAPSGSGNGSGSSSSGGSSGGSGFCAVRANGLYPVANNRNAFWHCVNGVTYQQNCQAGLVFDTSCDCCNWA
smiles,measurement,setting,value
CC(C)CN1C[C@H](Cc2ccc(Cl)cc2)N(C2CCN(c3n[nH]c(N)n3)CC2)C[C@@H]1C,IC50,[1],84 nM
same,IC50,[2],2400 nM
CN1CCN(C2CCN(c3nnc(N)[nH]3)CC2)[C@@H](Cc2ccc(Cl)cc2)C1,IC50,[2]; hek293,Not Active
Nc1nnc(N2CCC(N3Cc4ccccc4OC[C@@H]3Cc3ccc(Cl)cc3)CC2)[nH]1,IC50,[3],59 nM
same,IC50,Chitotriosidase-1 [4],137 nM
same,IC50,[2],22000 nM
C[C@@H]1CN(C2CCN(c3nnc(N)[nH]3)CC2)[C@@H](Cc2ccc(Cl)cc2)CO1,IC50,[3],1000 nM
same,IC50,Chitotriosidase-1 [4],7200 nM
CNC(=O)[C@H]1CN(C2CCN(c3nc(N)n[nH]3)CC2)[C@@H](Cc2ccc(Cl)cc2)CO1,IC50,[3],7.8 nM
same,IC50,Chitotriosidase-1 [4],49 nM
same,IC50,[2]; hek293,Not Active
COC[C@H]1CN(C2CCN(c3nc(N)n[nH]3)CC2)[C@@H](Cc2ccc(Cl)cc2)CO1,IC50,[3],7.7 nM
same,IC50,Chitotriosidase-1 [4],30 nM
same,IC50,[2],100000 nM
CC(C)C[C@H]1CN(C2CCN(c3nnc(N)[nH]3)CC2)[C@@H](Cc2ccc(Cl)cc2)CO1,IC50,[3],1 nM
same,IC50,Chitotriosidase-1 [4],15 nM
same,IC50,[2],8500 nM
Nc1n[nH]c(N2CCC(N3CC(=O)NC[C@@H]3Cc3ccc(Cl)cc3)CC2)n1,IC50,[3],660 nM
same,IC50,Chitotriosidase-1 [4],5300 nM
same,IC50,[2],80000 nM
Nc1n[nH]c(N2CCC(N3CCNC(=O)[C@@H]3Cc3ccc(Cl)cc3)CC2)n1,IC50,[3],22000 nM
same,IC50,Chitotriosidase-1 [4],27000 nM
same,IC50,Chitotriosidase-1 [5],Not Active
CC(C)(O)[C@H]1CN(C2CCN(c3nc(N)n[nH]3)CC2)[C@@H](Cc2ccc(Cl)cc2)CO1,IC50,[3],5.5 nM
same,IC50,Chitotriosidase-1 [4],29 nM
same,IC50,[2]; hek293,Not Active
CC[C@H]1CN(C2CCN(c3nc(N)n[nH]3)CC2)[C@@H](Cc2ccc(Cl)cc2)CO1,IC50,[3],1.3 nM
same,IC50,[2],33000 nM
Nc1nnc(N2CCC(N3C[C@H](CO)OC[C@@H]3Cc3ccc(Cl)cc3)CC2)[nH]1,IC50,[3],6.7 nM
same,IC50,Chitotriosidase-1 [4],25 nM
same,IC50,[2],72000 nM
Nc1nnc(N2CCC(N3CCS(=O)(=O)C[C@@H]3Cc3ccc(Cl)cc3)CC2)[nH]1,IC50,[3],3000 nM
same,IC50,Chitotriosidase-1 [4],1700 nM
CC(C)[C@H]1CN(C2CCN(c3nc(N)n[nH]3)CC2)[C@@H](Cc2ccc(Cl)cc2)CO1,IC50,[3],2.1 nM
same,IC50,Chitotriosidase-1 [4],19 nM
same,IC50,[2],34000 nM
